Paper PMC9329436, “Optimization of the 4-anilinoquin(az)oline scaffold as epidermal growth factor receptor (EGFR) inhibitors for chordoma utilizing a toxicology profiling assay platform” (Scientific Reports, 2022)
Like-named read-outs stand apart in the source and are kept apart here.

Columns and labels:
Assay type in all cases: biochemical
[1] = target: 320 wild-type protein kinases (Homo sapiens, UniProt P08069); conditions: IGF1-R, singlicate
Description: (§1) Table S4. Profiling of two compounds at two concentrations against 320 wild-type protein kinases; singlicate measurement; Residual activities (% of control).

[2] = target: 320 wild-type protein kinases (Homo sapiens, UniProt Q15418); conditions: kinase RPS6KA1, singlicate
320 wild-type protein kinases (Homo sapiens, UniProt Q15418), sequence (Q15418 whole entry): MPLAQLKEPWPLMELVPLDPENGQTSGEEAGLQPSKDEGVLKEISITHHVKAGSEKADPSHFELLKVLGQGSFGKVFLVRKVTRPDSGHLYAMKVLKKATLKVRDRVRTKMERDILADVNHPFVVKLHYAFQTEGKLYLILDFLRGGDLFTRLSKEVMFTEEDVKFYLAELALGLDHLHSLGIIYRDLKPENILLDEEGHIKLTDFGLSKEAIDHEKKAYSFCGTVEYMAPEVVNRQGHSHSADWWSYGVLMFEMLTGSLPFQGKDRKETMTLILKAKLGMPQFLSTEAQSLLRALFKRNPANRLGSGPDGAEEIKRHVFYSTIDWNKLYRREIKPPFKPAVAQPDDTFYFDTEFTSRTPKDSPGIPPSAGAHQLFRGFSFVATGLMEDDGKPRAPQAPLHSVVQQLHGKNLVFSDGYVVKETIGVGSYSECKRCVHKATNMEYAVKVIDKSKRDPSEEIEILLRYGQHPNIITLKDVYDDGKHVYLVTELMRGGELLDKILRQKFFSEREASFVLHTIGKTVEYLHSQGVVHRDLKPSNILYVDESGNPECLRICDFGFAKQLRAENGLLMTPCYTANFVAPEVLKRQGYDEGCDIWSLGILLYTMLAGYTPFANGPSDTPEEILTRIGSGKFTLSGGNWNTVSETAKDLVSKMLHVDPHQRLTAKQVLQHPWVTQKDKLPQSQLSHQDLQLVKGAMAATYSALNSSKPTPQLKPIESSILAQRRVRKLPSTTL
Description: as §1

[3] = target: T1, 320 wild-type protein kinases (Homo sapiens, UniProt Q8TD08); conditions: singlicate
T1 sequence (Q8TD08 1-544): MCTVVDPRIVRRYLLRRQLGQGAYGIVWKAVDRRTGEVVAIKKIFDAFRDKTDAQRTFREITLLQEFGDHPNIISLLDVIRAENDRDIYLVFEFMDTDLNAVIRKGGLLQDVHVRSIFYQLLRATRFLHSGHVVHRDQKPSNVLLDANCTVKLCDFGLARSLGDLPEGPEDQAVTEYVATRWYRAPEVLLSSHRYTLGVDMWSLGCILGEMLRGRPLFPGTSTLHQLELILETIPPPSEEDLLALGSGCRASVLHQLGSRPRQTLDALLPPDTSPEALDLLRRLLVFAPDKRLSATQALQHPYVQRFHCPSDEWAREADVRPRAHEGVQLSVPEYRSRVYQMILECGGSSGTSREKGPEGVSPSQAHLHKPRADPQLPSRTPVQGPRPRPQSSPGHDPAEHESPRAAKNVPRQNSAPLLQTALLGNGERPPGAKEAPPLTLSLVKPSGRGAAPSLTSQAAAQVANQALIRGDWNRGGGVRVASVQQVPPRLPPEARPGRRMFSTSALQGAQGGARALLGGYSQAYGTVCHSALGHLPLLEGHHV
Description: as §1

[4] = target: 320 wild-type protein kinases (Homo sapiens, UniProt Q6IQ55); conditions: kinase TTBK2, singlicate
320 wild-type protein kinases (Homo sapiens, UniProt Q6IQ55), sequence (Q6IQ55 whole entry): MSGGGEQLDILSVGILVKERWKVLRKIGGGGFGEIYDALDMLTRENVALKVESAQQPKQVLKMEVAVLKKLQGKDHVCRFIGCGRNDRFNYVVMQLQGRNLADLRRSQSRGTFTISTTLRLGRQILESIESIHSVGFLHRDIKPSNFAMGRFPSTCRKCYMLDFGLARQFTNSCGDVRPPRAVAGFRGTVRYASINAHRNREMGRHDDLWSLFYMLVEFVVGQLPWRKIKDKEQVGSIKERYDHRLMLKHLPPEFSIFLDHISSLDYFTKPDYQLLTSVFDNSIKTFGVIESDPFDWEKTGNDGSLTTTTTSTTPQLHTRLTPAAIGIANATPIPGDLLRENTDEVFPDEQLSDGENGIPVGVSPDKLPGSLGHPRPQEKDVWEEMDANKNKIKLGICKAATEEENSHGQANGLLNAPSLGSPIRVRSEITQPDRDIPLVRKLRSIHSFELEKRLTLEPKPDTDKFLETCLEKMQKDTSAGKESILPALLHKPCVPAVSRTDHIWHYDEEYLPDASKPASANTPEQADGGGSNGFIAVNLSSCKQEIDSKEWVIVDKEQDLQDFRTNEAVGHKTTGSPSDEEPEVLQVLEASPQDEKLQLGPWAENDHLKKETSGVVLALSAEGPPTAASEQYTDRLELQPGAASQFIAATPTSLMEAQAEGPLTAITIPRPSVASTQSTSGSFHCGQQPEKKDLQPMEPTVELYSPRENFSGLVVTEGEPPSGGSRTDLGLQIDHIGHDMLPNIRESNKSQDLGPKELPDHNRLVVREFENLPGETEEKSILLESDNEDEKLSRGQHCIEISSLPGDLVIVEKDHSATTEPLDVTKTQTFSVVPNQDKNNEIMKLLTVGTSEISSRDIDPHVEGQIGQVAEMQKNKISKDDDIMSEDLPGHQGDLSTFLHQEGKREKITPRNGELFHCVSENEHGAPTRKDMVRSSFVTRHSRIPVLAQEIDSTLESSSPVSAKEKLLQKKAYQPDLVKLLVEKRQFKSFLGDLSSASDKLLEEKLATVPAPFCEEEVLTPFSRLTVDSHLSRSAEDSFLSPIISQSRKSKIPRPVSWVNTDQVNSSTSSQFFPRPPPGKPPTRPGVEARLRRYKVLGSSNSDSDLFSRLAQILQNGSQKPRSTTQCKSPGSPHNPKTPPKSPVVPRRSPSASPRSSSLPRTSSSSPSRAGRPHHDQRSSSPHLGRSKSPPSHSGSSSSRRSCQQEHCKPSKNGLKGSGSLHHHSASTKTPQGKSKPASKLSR
Description: as §1

[5] = target: 320 wild-type protein kinases (Homo sapiens, UniProt P27448); conditions: singlicate
320 wild-type protein kinases (Homo sapiens, UniProt P27448), sequence (P27448 whole entry): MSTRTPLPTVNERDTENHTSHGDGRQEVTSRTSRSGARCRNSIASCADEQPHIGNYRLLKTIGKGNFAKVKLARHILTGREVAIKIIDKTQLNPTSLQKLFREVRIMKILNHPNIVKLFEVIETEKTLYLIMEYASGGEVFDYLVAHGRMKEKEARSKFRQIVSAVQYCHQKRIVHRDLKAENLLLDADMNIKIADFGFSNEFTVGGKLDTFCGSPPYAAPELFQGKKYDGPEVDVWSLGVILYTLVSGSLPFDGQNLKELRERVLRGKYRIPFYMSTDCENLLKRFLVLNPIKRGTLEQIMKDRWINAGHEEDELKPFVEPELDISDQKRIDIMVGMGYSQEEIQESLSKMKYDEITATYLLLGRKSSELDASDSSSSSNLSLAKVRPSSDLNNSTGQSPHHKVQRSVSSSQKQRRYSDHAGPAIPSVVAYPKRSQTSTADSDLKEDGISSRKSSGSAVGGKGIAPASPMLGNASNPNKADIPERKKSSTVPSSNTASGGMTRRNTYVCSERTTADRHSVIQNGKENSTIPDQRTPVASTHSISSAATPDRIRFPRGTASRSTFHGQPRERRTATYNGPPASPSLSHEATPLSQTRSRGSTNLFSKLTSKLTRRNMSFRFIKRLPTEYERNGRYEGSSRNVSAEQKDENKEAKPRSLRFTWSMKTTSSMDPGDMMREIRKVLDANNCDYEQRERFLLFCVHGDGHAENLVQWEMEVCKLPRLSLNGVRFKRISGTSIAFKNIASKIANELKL
Description: as §1

[6] = target: 320 wild-type protein kinases (Homo sapiens, UniProt P50750); conditions: singlicate
320 wild-type protein kinases (Homo sapiens, UniProt P50750), sequence (P50750 whole entry): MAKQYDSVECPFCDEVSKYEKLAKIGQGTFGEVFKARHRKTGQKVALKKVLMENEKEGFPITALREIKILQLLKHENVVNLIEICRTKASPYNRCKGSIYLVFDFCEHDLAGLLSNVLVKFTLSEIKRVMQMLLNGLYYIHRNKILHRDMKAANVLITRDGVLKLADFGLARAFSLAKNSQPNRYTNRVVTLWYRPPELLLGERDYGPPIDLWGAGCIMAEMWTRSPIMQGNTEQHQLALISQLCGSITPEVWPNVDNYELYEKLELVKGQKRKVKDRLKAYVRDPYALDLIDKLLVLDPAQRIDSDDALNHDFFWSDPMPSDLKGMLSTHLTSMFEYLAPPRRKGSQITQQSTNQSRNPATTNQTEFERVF
Description: as §1

[7] = target: T2, 320 wild-type protein kinases (Homo sapiens, UniProt Q9UHD2); conditions: kinase TBK1, singlicate
T2 sequence (Q9UHD2 1-729): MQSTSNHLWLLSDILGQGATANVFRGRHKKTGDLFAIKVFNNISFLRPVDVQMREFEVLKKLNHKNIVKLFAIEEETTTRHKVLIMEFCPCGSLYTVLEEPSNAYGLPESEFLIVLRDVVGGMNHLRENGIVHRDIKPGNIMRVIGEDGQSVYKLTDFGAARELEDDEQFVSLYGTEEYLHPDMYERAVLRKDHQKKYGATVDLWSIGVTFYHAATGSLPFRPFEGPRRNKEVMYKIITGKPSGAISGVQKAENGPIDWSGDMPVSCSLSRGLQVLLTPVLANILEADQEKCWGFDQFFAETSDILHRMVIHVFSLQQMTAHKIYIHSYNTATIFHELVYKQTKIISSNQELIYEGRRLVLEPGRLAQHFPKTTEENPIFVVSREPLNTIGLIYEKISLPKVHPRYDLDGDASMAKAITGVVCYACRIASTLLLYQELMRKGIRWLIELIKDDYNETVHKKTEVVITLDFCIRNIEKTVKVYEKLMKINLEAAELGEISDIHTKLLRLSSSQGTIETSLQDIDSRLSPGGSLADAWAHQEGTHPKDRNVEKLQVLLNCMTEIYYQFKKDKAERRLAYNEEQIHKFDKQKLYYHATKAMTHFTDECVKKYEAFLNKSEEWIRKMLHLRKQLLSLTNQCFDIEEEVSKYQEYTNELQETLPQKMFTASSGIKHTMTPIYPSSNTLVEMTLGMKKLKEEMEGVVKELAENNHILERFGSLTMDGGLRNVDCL
Description: as §1

[8] = target: T3, 320 wild-type protein kinases (Homo sapiens, UniProt O00444); conditions: kinase SAK, singlicate
T3 sequence (O00444 1-970): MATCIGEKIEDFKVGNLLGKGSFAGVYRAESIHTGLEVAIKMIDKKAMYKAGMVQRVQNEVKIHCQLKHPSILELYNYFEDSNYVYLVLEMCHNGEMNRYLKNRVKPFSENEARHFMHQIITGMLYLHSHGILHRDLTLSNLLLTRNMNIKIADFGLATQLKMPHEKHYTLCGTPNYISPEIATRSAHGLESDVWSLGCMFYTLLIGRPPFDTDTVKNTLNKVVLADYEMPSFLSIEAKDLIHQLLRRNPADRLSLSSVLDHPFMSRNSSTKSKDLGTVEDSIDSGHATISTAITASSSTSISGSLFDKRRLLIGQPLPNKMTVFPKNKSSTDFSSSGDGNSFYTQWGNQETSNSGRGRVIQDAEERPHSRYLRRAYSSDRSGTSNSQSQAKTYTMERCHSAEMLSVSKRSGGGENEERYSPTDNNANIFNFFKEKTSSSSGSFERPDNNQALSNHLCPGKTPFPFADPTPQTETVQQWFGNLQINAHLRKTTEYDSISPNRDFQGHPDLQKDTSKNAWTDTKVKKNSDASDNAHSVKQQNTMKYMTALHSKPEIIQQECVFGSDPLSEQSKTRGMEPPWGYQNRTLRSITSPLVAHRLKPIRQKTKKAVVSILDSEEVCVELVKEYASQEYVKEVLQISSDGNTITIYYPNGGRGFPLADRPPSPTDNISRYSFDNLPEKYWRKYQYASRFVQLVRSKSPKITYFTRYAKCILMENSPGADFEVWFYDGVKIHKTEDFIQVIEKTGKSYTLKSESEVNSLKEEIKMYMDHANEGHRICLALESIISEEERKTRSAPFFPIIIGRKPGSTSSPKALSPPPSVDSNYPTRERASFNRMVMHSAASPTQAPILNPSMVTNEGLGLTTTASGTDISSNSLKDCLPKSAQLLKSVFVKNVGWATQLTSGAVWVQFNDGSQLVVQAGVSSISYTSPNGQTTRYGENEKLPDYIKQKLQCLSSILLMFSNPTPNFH
Description: as §1

320 wild-type protein kinases (Homo sapiens, UniProt P08069), sequence (P08069 31-1367): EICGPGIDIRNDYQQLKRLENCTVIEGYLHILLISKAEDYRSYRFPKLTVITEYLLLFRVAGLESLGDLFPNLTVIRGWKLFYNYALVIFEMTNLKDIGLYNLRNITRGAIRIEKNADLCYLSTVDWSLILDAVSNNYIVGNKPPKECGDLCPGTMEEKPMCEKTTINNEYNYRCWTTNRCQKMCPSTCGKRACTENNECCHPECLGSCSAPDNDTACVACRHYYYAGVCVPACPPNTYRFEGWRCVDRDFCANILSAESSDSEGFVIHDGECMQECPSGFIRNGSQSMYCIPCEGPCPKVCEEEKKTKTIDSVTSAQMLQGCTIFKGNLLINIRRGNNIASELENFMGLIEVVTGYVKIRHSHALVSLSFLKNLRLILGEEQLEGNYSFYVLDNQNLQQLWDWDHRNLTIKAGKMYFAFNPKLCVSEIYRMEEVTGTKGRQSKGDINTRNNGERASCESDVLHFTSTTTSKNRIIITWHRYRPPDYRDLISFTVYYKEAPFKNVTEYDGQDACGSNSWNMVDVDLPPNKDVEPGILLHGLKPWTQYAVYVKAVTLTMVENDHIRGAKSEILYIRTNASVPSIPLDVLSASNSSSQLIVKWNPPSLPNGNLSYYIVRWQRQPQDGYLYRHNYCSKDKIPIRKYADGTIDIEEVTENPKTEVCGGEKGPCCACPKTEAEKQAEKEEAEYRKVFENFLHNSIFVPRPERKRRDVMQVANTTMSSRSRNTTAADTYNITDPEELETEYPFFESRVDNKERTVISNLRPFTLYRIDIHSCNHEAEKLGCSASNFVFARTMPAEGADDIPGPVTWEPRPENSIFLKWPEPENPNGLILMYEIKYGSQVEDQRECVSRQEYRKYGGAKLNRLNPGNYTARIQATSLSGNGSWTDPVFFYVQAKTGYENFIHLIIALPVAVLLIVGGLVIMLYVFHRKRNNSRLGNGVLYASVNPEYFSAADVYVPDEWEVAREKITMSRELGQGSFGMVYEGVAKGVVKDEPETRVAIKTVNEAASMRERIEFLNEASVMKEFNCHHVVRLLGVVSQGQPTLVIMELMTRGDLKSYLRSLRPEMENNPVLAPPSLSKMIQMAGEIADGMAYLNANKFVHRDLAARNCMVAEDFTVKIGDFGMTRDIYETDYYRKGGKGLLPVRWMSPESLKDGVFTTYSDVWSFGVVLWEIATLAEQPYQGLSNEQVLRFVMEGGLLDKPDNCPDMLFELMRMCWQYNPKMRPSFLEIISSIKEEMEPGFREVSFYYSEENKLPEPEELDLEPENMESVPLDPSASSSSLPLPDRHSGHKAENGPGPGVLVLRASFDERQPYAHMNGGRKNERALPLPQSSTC

C#Cc1cc(Nc2ncnc3cc(I)ccc23)ccc1Cl [Compound 41]
Residual activity ([1]; 1.0E-06 M): 103 % of control | Residual activity ([1]; 1.0E-07 M): 109 % of control | Residual activity, RPS6KA1 ([2]; assay conc. 1.0E-06 M): 99 % of control | Residual activity, RPS6KA1 ([2]; assay conc. 1.0E-07 M): 103 % of control | Residual activity ([3]; ERK7, 1.0E-06 M): 96 % of control | Residual activity ([3]; ERK7, 1.0E-07 M): 94 % of control | Residual activity, TTBK2 ([4]; assay conc. 1.0E-06 M): 101 % of control | Residual activity, TTBK2 ([4]; assay conc. 1.0E-07 M): 102 % of control | Residual activity ([5]; MARK3, 1.0E-06 M): 95 % of control | Residual activity ([5]; MARK3, 1.0E-07 M): 97 % of control | Residual activity ([6]; CDK9/CycK, 1.0E-06 M): 80 % of control | Residual activity ([6]; CDK9/CycK, 1.0E-07 M): 99 % of control | Residual activity ([6]; CDK9/CycT1, 1.0E-06 M): 92 % of control | Residual activity ([6]; CDK9/CycT1, 1.0E-07 M): 95 % of control | Residual activity, TBK1 ([7]; assay conc. 1.0E-06 M): 98 % of control | Residual activity, TBK1 ([7]; assay conc. 1.0E-07 M): 106 % of control | Residual activity, SAK ([8]; assay conc. 1.0E-06 M): 77 % of control | Residual activity, SAK ([8]; assay conc. 1.0E-07 M): 95 % of control

C#Cc1cc(Nc2ncnc3cc(OC)c(OC)cc23)ccc1Cl [Compound 45]
Residual activity ([1]; 1.0E-06 M): 101 % of control | Residual activity ([1]; 1.0E-07 M): 122 % of control | Residual activity, RPS6KA1 ([2]; assay conc. 1.0E-06 M): 74 % of control | Residual activity, RPS6KA1 ([2]; assay conc. 1.0E-07 M): 88 % of control | Residual activity ([3]; ERK7, 1.0E-06 M): 90 % of control | Residual activity ([3]; ERK7, 1.0E-07 M): 104 % of control | Residual activity, TTBK2 ([4]; assay conc. 1.0E-06 M): 95 % of control | Residual activity, TTBK2 ([4]; assay conc. 1.0E-07 M): 96 % of control | Residual activity ([5]; MARK3, 1.0E-06 M): 100 % of control | Residual activity ([5]; MARK3, 1.0E-07 M): 96 % of control | Residual activity ([6]; CDK9/CycK, 1.0E-06 M): 86 % of control | Residual activity ([6]; CDK9/CycK, 1.0E-07 M): 103 % of control | Residual activity ([6]; CDK9/CycT1, 1.0E-06 M): 88 % of control | Residual activity ([6]; CDK9/CycT1, 1.0E-07 M): 90 % of control | Residual activity, TBK1 ([7]; assay conc. 1.0E-06 M): 89 % of control | Residual activity, TBK1 ([7]; assay conc. 1.0E-07 M): 106 % of control | Residual activity, SAK ([8]; assay conc. 1.0E-06 M): 82 % of control | Residual activity, SAK ([8]; assay conc. 1.0E-07 M): 99 % of control
